# From patent US12521356B2, “Compositions and methods for treating pain, inflammation, infection, malaria, and sepsis” (Duke University, priority 2018, dated 2026)
# Columns and labels:
# [1] = molecular target: T1, GPR37 (Homo sapiens, UniProt O15354); assay: Dot blot binding assay with lysates of HEK293 cells with GPR37 cDNA or mock transfection; details: for binding to GPR37-containing lysates: blots coated with different concentrations, lysates of HEK293 cells with GPR37 cDNA
# T1 construct: host or cells: HEK293 flip-in cells
# T1 sequence (O15354 27-613): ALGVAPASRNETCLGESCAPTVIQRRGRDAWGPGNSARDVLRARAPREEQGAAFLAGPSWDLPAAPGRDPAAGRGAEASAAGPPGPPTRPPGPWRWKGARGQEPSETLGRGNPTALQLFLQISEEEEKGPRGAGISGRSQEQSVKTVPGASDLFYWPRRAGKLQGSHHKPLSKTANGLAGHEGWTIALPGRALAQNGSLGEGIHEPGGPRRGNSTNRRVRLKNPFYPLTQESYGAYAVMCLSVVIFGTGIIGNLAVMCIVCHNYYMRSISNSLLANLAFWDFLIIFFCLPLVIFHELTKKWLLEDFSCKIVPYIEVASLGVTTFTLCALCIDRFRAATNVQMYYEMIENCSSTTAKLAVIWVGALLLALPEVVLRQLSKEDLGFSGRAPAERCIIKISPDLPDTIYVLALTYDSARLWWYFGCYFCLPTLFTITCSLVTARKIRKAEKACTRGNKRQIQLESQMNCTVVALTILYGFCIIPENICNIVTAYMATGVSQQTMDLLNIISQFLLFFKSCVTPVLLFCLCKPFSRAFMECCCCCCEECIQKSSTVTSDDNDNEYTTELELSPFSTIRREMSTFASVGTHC
# Description: (§1) Lipids overlay assay. Lipids membrane coating and protein overlay assay was conducted as previously described (Ji R R, et al. Science 2016, 354, 572-577). Ethanol and chloroform soluble fatty acids were directly loaded on hydrophobic PVDF membrane (Bio-Rad). The fatty acids (NPD1, RvD1, RvE1, and DHA) coated membranes were dried and blocked with 1% BSA. The cell lysate and purified GPR37-V5 protein were incubated with the coating membrane for 2 h, and the binding was detected by anti-V5 tagged antibody (mouse, 1:1000, Thermo scientific, Catalog: 46-0705).
# (§2) HEK cell culture and transfection. HEK293 flip-in cell line was purchased from Duke Cell Culture Facility. Cells were cultured in high glucose (4.5 g/L) Dulbecco's Modified Eagle's Medium containing 10% (v/v) fetal bovine serum (Gibco). Transfection (2 μg cDNA) was performed with Lonza electroporation (Lonza) at 70% confluency and the transfected cells were cultured in the same growth medium for 48 h before use. The hGPR37-V5 pLenti304 plasmids were obtained from DNASU (Tempe, AZ), and hGPR32, hChemR23 and hALX pcDNA3 plasmids were provided by Dr. Serhan from Harvard Medical School, Boston.
# To determine whether NPD1 and TX14 bind to GPR37, we conducted dot blot assay by coating the blots with different concentrations of NPD1 and TX14 and included RvE1 as a control. The blots were then incubated with cell lysates from HEK293 cells with GPR37 cDNA or Mock transfection.
# [2] = molecular target: T2, CHEM23 (Homo sapiens, UniProt Q99788); assay: Dot blot binding assay, positive control CHEM23
# T2 sequence (Q99788 1-373): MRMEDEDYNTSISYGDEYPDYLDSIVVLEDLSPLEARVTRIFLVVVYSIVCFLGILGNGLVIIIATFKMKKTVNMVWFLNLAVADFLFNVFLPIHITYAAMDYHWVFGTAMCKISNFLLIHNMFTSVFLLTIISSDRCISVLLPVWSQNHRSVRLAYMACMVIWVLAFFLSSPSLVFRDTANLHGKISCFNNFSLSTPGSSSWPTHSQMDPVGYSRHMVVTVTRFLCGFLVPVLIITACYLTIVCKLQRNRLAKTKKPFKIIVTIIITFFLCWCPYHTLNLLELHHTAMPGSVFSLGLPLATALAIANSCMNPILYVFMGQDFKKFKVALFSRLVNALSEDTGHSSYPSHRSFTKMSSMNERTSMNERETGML
# Description: as §1, §2
# (§3) To determine whether NPD1 and TX14 bind to GPR37, we conducted dot blot assay by coating the blots with different concentrations of NPD1 and TX14 and included RvE1 as a control. […]
# [3] = molecular target: T3, GPR32 (Homo sapiens, UniProt O75388); assay: Dot blot binding assay, positive control GPR32
# T3 construct: host or cells: HEK293 flip-in cells
# T3 sequence (O75388 whole entry): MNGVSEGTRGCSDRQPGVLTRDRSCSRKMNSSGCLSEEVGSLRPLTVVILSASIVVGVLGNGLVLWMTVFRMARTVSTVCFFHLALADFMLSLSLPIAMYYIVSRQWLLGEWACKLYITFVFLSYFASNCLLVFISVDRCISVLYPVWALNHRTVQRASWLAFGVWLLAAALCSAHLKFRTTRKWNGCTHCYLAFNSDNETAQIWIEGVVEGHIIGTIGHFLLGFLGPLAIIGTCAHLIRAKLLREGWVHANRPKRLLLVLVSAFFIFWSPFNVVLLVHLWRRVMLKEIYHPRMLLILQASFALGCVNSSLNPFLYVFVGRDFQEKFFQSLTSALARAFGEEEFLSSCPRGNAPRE
# Description: as §1, §2, §3
# [4] = molecular target: T4, ALX (Homo sapiens, UniProt P25090); assay: Ca2+ imaging (Fura-2AM) in HEK293 cells transfected with ALX cDNA; format: cell-based; details: HEK293 cells expressing ALX
# T4 construct: host or cells: HEK293 flip-in cells
# T4 sequence (P25090 1-351): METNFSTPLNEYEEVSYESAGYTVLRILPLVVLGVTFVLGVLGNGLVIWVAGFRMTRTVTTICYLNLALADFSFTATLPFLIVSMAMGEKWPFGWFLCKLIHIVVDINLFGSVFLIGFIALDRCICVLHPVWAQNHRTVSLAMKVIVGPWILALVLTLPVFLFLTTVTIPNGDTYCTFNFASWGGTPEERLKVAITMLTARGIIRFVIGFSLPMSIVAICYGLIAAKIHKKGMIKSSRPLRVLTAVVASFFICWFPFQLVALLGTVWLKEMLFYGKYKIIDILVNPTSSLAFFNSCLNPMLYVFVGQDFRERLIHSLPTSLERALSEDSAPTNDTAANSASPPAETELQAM
# Excerpt: FIG. 10A-FIG. 10C. Characterization of intracellular Ca^2+ changes in HEK293 cells expressing ChemR23, GPR32, and ALX. Ca^2+ imaging with Fura-2AM indicator showing iCa^2+ levels in HEK293 cells transfected with ChemR23 (FIG. 10A), GPR32 (FIG. 10B), and ALX (FIG. 10C) cDNAs. Note that NPD1 fails to elicit iCa^2+ increase in HEK293 cells expressing ChemR23, GPR32, and ALX. […] ATP is included as a positive control. *P<0.05, compared with baseline n=44˜97 cells from 3 cultures. All the data are expressed as mean±s.e.m.
# as §2
# Calcium imaging. HEK 293 cells, with or without transfection of Gpr37, GPR32, ChemR23 or ALX1 cDNA, were loaded with 5 μM Fura-2AM (Invitrogen) for 1 hour and then were resuspended in normal external buffer (140 NaCl, 5 KCl, 2 CaCl2, 2 MgCl2, 10 HEPES, in mM, titrated to pH 7.4 with NaOH) or external Ca^2+-free buffer (140 NaCl, 2 MgCl2, 5 EGTA, 10 HEPES, in mM, titrated to pH 7.4 with NaOH). Peritoneal macrophages, collected from WT and Gpr37 KO mice, were loaded with 5 μM […] (Invitrogen) for 1 hour and then were resuspended in normal external buffer. Images of the HEK 293 cells and macrophages with the excitation wavelength of 340 nm and 380 nm were captured with a cooled Digital CMOS camera (ORCA-Flash 4.0, Hamamatsu Photonics K.K, Japan). The ratio of fluorescence intensity of the two wavelengths in each experiment was analyzed using MetaFluor (Molecular Devices). The Shutter speed and wavelength was controlled by Lambda DG-4 system (Sutter instrument Co., Novato, CA). Values from each of the experiments were normalized to the baseline ratio of 340/380 nm.
# Several SPM receptors have been identified such as ChemR23 for RvE1, GPR32 for RvD1, and ALX for lipoxin A. We transfected human cDNAs of ChemR23, GPR32, and ALX in HEK293 cells and checked Ca^2+ responses following the treatment of each SPM.
SMILES,binding to GPR37-containing lysates [1],binding to CHEM23 [2],binding to GPR32 [3],"binding affinity to GPR37, comparison ([1]; dose-response curve analysis)",binding of lysates from mock transfection (GPR37-negative) ([1]; mock-transfected HEK293 lysates),iCa2+ increase / Ca2+ response [4]
CC[C@@H](O)/C=C/C=C\C[C@@H](O)/C=C/C=C/C=C\[C@@H](O)CCCC(=O)O [RvE1],not,strong binding,,,,
CC/C=C\C[C@H](O)/C=C/C=C\C=C\C=C\[C@@H](O)[C@@H](O)C/C=C\CCC(=O)O [RvD1],,,strong binding,,,
"CC/C=C\C[C@H](O)\C=C/C=C/C=C/[C@H](O)C/C=C\C/C=C\CCC(=O)O [NPD1, neuroprotectin D1]",dose-dependent binding,,,higher binding affinity to GPR37 than TX14,did not show binding activities,failed to elicit iCa^2+ increase
